Results: US10040788B2, “1,3,4-thiadiazole compounds and their use in treating cancer” (AstraZeneca AB, priority 2014, dated 2018)

Assays:
[1] = target: GLS1 (Homo sapiens (Human), UniProt O94925); experiment: GLS Enzyme Potency Assay (Glutamate Oxidase/AmplexRed coupled assay); assay type: biochemical; conditions: 6His tagged GLS protein (amino acids 63-669); geometric mean where repeated
Source text: The following assays were used to measure the effects of the compounds of the present invention: a) GLS Enzyme Potency Assay; b) GLS Cell Potency Assay; c) GLS Cell Proliferation Assay; and d) Mouse Xenograft Model. During the description of the assays, generally: • i. The following abbreviations have been used: CO2=Carbon dioxide; DMEM=Dulbecco's Modified Eagle Medium; DMSO=Dimethyl sulphoxide; EDTA=Ethylenediaminetetraacetic acid; EGTA=Ethylene glycol tetraacetic acid; FCS=Foetal calf serum; h=Hour(s); NBS=Non-binding surface; SDS=Sodium dodecyl sulphate; r.t.=room temperature; TRIS=Tris(Hydroxymethyl)aminomethane. • ii. IC50 values were calculated using a smart fitting model in Genedata. […] Assay a): GLS Enzyme Potency Assay
A Glutamate Oxidase/AmplexRed coupled assay was used to measure the ability of compounds to bind to and inhibit the activity of GLS1 in vitro. […] GLS1 was diluted to 2× working concentration and incubated at r.t. to allow the tetrameric/dimeric forms to reach steady state. Assay measurements were performed in buffer comprising 50 mM TRIS pH 7.8, 100 mM NaPO4, pH 7.8, 0.001% v/v Tween20. […] DMSO concentration was maintained at 2% by back filling with DMSO solution. […] 3 μL of 100 mM glutamine diluted in assay buffer was then added and the reaction incubated at r.t. for 60 minutes. […] An artefact version of the assay where the 6His tagged GLS protein and glutamine were replaced with assay buffer was also used to rule out non specific effects on the assay components.

[2] = target: cellular GLS activity (Homo sapiens (Human), UniProt O94925); experiment: GLS Cell Potency Assay (PC3 coupled assay measuring cellular glutamate depletion); assay type: cell-based; conditions: PC3 cells, 6 h incubation, cellular glutamate depletion; geometric mean where repeated; read-out: Assay b) GLS Cell Potency Assay IC50
Sequence of cellular GLS activity (O94925 55-669): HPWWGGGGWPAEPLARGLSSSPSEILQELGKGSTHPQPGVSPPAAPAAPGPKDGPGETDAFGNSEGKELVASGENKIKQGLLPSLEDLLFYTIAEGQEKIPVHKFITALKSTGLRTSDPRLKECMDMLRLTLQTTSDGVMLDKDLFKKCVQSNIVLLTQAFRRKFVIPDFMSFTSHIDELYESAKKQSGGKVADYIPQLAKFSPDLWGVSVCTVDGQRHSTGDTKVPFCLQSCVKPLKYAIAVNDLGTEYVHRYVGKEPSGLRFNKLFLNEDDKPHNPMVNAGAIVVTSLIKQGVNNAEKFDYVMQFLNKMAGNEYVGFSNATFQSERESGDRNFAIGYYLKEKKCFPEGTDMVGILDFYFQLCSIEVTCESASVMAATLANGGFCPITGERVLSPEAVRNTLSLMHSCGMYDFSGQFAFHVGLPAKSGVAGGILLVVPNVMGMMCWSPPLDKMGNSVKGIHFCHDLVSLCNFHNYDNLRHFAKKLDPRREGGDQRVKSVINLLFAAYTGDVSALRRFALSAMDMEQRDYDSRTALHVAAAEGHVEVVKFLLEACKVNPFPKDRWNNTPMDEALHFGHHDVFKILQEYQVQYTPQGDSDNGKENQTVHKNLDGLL
Source text: (§1) The following assays were used to measure the effects of the compounds of the present invention: a) GLS Enzyme Potency Assay; b) GLS Cell Potency Assay; c) GLS Cell Proliferation Assay; and d) Mouse Xenograft Model. During the description of the assays, generally: • i. The following abbreviations have been used: CO2=Carbon dioxide; DMEM=Dulbecco's Modified Eagle Medium; DMSO=Dimethyl sulphoxide; EDTA=Ethylenediaminetetraacetic acid; EGTA=Ethylene glycol tetraacetic acid; FCS=Foetal calf serum; h=Hour(s); NBS=Non-binding surface; SDS=Sodium dodecyl sulphate; r.t.=room temperature; TRIS=Tris(Hydroxymethyl)aminomethane. • ii. […]
Compounds were assessed for their potential to inhibit cellular GLS activity by use of a PC3 coupled assay measuring cellular glutamate depletion. […] DMSO concentration was maintained at 0.3% by back filling with DMSO solution. PC3 cells were grown in phenol free DMEM, 10% dialyzed FCS, 2 mM glutamine and following dispersal by trypsinisation were plated at 5.6×10^3 cells per well in 40 μl of growth medium directly into the 384 well assay plates containing dispensed compound. After incubation for 6 h at 37° C., 5% CO2 growth media was aspirated and cells lysed in 15 μl of buffer containing 10 mM TRIS pH7.4, 100 mM NaCl, 1 mM EDTA, 1 mM EGTA, 1 mM NaF, 20 mM Na4P2O7, 2 mM Na3VO4, 1% Triton X-100, 10% glycerol, 0.1% SDS and 0.5% deoxycholate.

[3] = test system: NCI-H1703 cells; experiment: GLS Cell Proliferation Assay (NCI-H1703); assay type: cell-based, human; conditions: Homo sapiens, 120 h; NCI-H1703 cells, 5 days incubation; geometric mean where repeated; read-out: Assay c) GLS Cell Proliferation Assay
Source text: as §1
The ability of compounds to inhibit cell growth was measured using a 384 well plate NCI-H1703 cell proliferation assay. NCI-H1703 cells were grown in phenol red free RPMI1640, 10% FCS and 2 mM glutamine and seeded at a density of 750 cells per well in 40 μl of growth medium into clear-bottom 384 well assay plates (Corning product code 3712) and incubated for 24 h at 37° C., 5% CO2. […] DMSO concentration was maintained at 0.3% by back filling with DMSO solution. Plates were incubated for 5 days at 37° C., 5% CO2, Sytox Green and Saponin added to final concentration of 2 μM and 0.25% respectively and incubated for 6 h prior to analysis. Plates were read on an Acumen eX3 (TTP Labtech) using 488 nm excitation and FITC filter set (500-530 nm) for emission. IC50 values were calculated by curve fitting to max inhibition of day zero growth using GeneData software analysis.

Sequence of GLS1 (O94925 63-669): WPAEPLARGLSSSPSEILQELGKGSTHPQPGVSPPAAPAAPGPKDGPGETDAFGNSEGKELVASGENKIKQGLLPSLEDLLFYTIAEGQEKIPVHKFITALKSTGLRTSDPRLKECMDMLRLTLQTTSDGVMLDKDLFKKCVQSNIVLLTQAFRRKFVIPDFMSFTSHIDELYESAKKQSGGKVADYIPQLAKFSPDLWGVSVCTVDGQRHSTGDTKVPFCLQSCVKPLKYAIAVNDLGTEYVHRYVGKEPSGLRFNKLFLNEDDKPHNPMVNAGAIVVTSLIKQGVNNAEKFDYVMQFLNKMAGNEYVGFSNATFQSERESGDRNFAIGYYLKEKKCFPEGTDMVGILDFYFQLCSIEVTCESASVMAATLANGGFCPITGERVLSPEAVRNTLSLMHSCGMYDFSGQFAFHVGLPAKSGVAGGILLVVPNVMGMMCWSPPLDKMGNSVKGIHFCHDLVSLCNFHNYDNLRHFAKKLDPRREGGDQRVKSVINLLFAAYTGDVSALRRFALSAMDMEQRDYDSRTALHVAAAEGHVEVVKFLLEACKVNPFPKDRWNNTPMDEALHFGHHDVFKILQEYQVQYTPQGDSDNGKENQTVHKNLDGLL

SMILES | IC50 [1] | IC50 [2] | IC50 [3]
COc1cccc([C@H](OC)C(=O)Nc2nnc(N[C@@H]3CCN(c4nccnn4)C3)s2)c1 [Example 4(a), (2S)-2-Methoxy-2-(3-methoxyphenyl)-N-[5-[[(3R)-1-(1,2,4-triazin-3-yl)pyrrolidin-3-yl]amino]-1,3,4-thiadiazol-2-yl]acetamide] | 35.5 nM | 1.51 nM | 5.01 nM
CCO[C@H](C(=O)Nc1nnc(N[C@@H]2CCN(c3nccnn3)C2)s1)c1ccc(F)cc1 [35(a), (2S)-2-ethoxy-2-(4-fluorophenyl)-N-[5-[[(3R)-1-(1,2,4-triazin-3-yl)pyrrolidin-3-yl]amino]-1,3,4-thiadiazol-2-yl]acetamide] | 1950 nM | 337 nM | 7130 nM
COc1cccc([C@@H](OC)C(=O)Nc2nnc(N[C@@H]3CCN(c4cccnn4)C3)s2)c1 [Example 5(b), (2R)-2-Methoxy-2-(3-methoxyphenyl)-N-[5-[[(3R)-1-pyridazin-3-ylpyrrolidin-3-yl]amino]-1,3,4-thiadiazol-2-yl]acetamide] | 87.9 nM | 5.3 nM | 53.5 nM
CO[C@@H](C(=O)Nc1nnc(N[C@@H]2CCN(c3cccnn3)C2)s1)c1cccc(OC(F)(F)F)c1 [Example 9(b), (2R)-2-Methoxy-N-[5-[[(3R)-1-pyridazin-3-ylpyrrolidin-3-yl]amino]-1,3,4-thiadiazol-2-yl]-2-[3-(trifluoromethoxy)phenyl]acetamide] | 32.9 nM | 2.3 nM | 4.4 nM
CO[C@H](C(=O)Nc1nnc(N[C@@H]2CCN(c3nccnn3)C2)s1)c1cccc(OC(F)F)c1 [Example 6(a), (2S)-2-[3-(Difluoromethoxy)phenyl]-2-methoxy-N-[5-[[(3R)-1-(1,2,4-triazin-3-yl)pyrrolidin-3-yl]amino]-1,3,4-thiadiazol-2-yl]acetamide] | 85.1 nM | 2.57 nM | 16.6 nM
COc1cccc([C@@H](OC)C(=O)Nc2nnc(N[C@@H]3CCN(c4nccnn4)C3)s2)c1 [Example 4(b), (2R)-2-Methoxy-2-(3-methoxyphenyl)-N-[5-[[(3R)-1-(1,2,4-triazin-3-yl)pyrrolidin-3-yl]amino]-1,3,4-thiadiazol-2-yl]acetamide] | 908 nM | 76 nM | 262 nM
CCO[C@@H](C(=O)Nc1nnc(N[C@@H]2CCN(c3nccnn3)C2)s1)c1ccc(F)c(OC)c1 [33(b), (2R)-2-ethoxy-2-(4-fluoro-3-methoxy-phenyl)-N-[5-[[(3R)-1-(1,2,4-triazin-3-yl)pyrrolidin-3-yl]amino]-1,3,4-thiadiazol-2-yl]acetamide] | 1970 nM | 690 nM | 5540 nM
COc1cc([C@H](OC)C(=O)Nc2nnc(N[C@@H]3CCN(c4nccnn4)C3)s2)ccc1F [32(a), (2S)-2-(4-fluoro-3-methoxy-phenyl)-2-methoxy-N-[5-[[(3R)-1-(1,2,4-triazin-3-yl)pyrrolidin-3-yl]amino]-1,3,4-thiadiazol-2-yl]acetamide] | 2460 nM | 300 nM | 2960 nM

Results, then the compound that gave them:

IC50 [1] | IC50 [2] | IC50 [3] | SMILES
46.9 nM | 0.35 nM | 1.78 nM | COc1cccc([C@@H](OC)C(=O)Nc2nnc(N[C@@H]3CCN(c4cncnn4)C3)s2)c1 [21(b), (2R)-2-methoxy-2-(3-methoxyphenyl)-N-[5-[[(3R)-1-(1,2,4-triazin-6-yl)pyrrolidin-3-yl]amino]-1,3,4-thiadiazol-2-yl]acetamide]
50.2 nM | 0.559 nM | 16.5 nM | CCO[C@H](C(=O)Nc1nnc(N[C@@H]2CCN(c3cccnn3)C2)s1)c1ccc(F)c(OC)c1 [31(a), (2S)-2-ethoxy-2-(4-fluoro-3-methoxy-phenyl)-N-[5-[[(3R)-1-pyridazin-3-ylpyrrolidin-3-yl]amino]-1,3,4-thiadiazol-2-yl]acetamide]
25.5 nM | 0.78 nM | 15.1 nM | COc1cc([C@H](OC)C(=O)Nc2nnc(N[C@@H]3CCN(c4cccnn4)C3)s2)ccc1F [Example 14(a), (2S)-2-(4-Fluoro-3-methoxy-phenyl)-2-methoxy-N-[5-[[(3R)-1-pyridazin-3-ylpyrrolidin-3-yl]amino]-1,3,4-thiadiazol-2-yl]acetamide]
86.2 nM | 33.3 nM | 624 nM | CCO[C@@H](C(=O)Nc1nnc(N[C@@H]2CCN(c3cccnn3)C2)s1)c1ccc(F)c(OC)c1 [31(b), (2R)-2-ethoxy-2-(4-fluoro-3-methoxy-phenyl)-N-[5-[[(3R)-1-pyridazin-3-ylpyrrolidin-3-yl]amino]-1,3,4-thiadiazol-2-yl]acetamide]
50.2 nM | 7.13 nM | 168 nM | CCO[C@H](C(=O)Nc1nnc(N[C@@H]2CCN(c3nccnn3)C2)s1)c1ccc(F)c(OC)c1 [33(a), (2S)-2-ethoxy-2-(4-fluoro-3-methoxy-phenyl)-N-[5-[[(3R)-1-(1,2,4-triazin-3-yl)pyrrolidin-3-yl]amino]-1,3,4-thiadiazol-2-yl]acetamide]
88.1 nM | 12 nM | 93.1 nM | CCO[C@H](C(=O)Nc1nnc(N[C@@H]2CCN(c3nccnn3)C2)s1)c1ccccc1 [34(a), (2S)-2-ethoxy-2-phenyl-N-[5-[[(3R)-1-(1,2,4-triazin-3-yl)pyrrolidin-3-yl]amino]-1,3,4-thiadiazol-2-yl]acetamide]
74.7 nM | 4.58 nM | 118 nM | COc1ccc([C@H](OC)C(=O)Nc2nnc(N[C@@H]3CCN(c4nccnn4)C3)s2)cc1 [Example 24, (2S)-2-methoxy-2-(4-methoxyphenyl)-N-[5-[[(3R)-1-(1,2,4-triazin-3-yl)pyrrolidin-3-yl]amino]-1,3,4-thiadiazol-2-yl]acetamide]
50.8 nM | 2.23 nM | 11.7 nM | CCO[C@H](C(=O)Nc1nnc(N[C@@H]2CCN(c3nccnn3)C2)s1)c1cccc(OC)c1 [27(a), (2S)-2-ethoxy-2-(3-methoxyphenyl)-N-[5-[[(3R)-1-(1,2,4-triazin-3-yl)pyrrolidin-3-yl]amino]-1,3,4-thiadiazol-2-yl]acetamide]
108 nM | 5.42 nM | 125 nM | CCO[C@H](C(=O)Nc1nnc(N[C@@H]2CCN(c3nccnn3)C2)s1)c1ccc(OC)cc1 [29(a), (2S)-2-ethoxy-2-(4-methoxyphenyl)-N-[5-[[(3R)-1-(1,2,4-triazin-3-yl)pyrrolidin-3-yl]amino]-1,3,4-thiadiazol-2-yl]acetamide]
70.7 nM | 4.99 nM | 107 nM | COc1cc([C@@H](OC)C(=O)Nc2nnc(N[C@@H]3CCN(c4nccnn4)C3)s2)ccc1F [32(b), (2R)-2-(4-fluoro-3-methoxy-phenyl)-2-methoxy-N-[5-[[(3R)-1-(1,2,4-triazin-3-yl)pyrrolidin-3-yl]amino]-1,3,4-thiadiazol-2-yl]acetamide]
